The source made the active and inactive calls. The rule behind the calls is not given here.
Legend:
Histone deacetylase [1] = test: Inhibition of HDAC in human A2780 cells using Boc-Lys (acetyl)-AMC as substrate preincubated for 18 hrs followed by susbtrate addition and measured after 3 hrs by fluorescence microplate reader assay; type: cell-based
Histone deacetylase [2] = test: Inhibition of HDAC in human CAL-27 cells using Boc-Lys (acetyl)-AMC as substrate preincubated for 18 hrs followed by susbtrate addition and measured after 3 hrs by fluorescence microplate reader assay; type: cell-based
CAL-27 = test: Antiproliferative activity against human CAL-27 cells assessed as reduction in cell viability after 72 hrs by MTT assay; type: functional, cell-based; settings: CAL-27, 72 h
A2780 = test: Antiproliferative activity against human A2780 cells assessed as reduction in cell viability after 72 hrs by MTT assay; type: functional, cell-based; settings: A2780, 72 h
HL-60 = test: Antiproliferative activity against human HL-60 cells assessed as reduction in cell viability for 72 hrs by Celltitre-Glo luminescent assay; type: functional, cell-based; settings: HL-60, 72 h
[3] = Inhibition of Class 1/2b HDAC in human HL-60 cells by HDAC-Glo assay; type: cell-based
Histone deacetylase 4 = Histone deacetylase 4 (Homo sapiens, UniProt P56524); test: Inhibition of recombinant human N-terminal GST-fusion tagged/C-terminal GST-tagged HDAC4 (627 to 1084 residues) expressed in baculovirus infected insect cells using Boc-Lys(TFA)-AMC as substrate preincubated for 5 mins followed by substrate addition measured after 90 mins by fluorimetry
Chain of Histone deacetylase 4 (P56524 whole entry, the tested form may be a part): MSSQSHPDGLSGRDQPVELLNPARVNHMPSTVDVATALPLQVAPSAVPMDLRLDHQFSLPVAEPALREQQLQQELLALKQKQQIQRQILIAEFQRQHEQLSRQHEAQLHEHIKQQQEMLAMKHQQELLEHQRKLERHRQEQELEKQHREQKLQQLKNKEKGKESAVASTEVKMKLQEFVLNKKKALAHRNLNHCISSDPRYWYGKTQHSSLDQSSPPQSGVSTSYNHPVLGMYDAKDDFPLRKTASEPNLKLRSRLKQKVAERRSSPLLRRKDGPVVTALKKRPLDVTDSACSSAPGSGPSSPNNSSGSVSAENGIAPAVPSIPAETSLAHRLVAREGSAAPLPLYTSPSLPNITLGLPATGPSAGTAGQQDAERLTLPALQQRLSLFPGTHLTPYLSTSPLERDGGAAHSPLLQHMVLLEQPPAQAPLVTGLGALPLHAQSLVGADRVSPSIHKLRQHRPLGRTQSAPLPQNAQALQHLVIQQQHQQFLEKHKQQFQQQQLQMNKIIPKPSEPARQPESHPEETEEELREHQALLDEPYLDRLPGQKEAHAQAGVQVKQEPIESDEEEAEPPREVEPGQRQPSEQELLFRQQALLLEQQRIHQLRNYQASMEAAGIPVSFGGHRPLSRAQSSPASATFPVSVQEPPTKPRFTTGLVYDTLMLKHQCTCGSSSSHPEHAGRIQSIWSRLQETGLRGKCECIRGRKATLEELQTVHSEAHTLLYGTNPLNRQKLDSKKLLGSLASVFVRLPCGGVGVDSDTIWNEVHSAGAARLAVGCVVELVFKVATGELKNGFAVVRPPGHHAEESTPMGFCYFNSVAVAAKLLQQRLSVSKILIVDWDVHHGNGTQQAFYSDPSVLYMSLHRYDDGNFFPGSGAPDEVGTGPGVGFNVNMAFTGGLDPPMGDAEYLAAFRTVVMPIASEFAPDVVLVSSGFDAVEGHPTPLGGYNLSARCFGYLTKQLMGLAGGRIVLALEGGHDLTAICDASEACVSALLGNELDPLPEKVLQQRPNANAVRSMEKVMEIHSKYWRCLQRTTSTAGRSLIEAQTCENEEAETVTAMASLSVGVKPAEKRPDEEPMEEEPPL

Histone deacetylase 8 = target: T1, Histone deacetylase 8 (Homo sapiens, UniProt Q9BY41); test: Inhibition of recombinant human C-terminal His-fusion tagged/N-terminal Strep2 tagged HDAC8 (1 to 377 residues) expressed in insect cells using Boc-Lys(TFA)-AMC as substrate preincubated for 5 mins followed by substrate addition measured after 90 mins by fluorimetry
T1 sequence (Q9BY41 whole entry): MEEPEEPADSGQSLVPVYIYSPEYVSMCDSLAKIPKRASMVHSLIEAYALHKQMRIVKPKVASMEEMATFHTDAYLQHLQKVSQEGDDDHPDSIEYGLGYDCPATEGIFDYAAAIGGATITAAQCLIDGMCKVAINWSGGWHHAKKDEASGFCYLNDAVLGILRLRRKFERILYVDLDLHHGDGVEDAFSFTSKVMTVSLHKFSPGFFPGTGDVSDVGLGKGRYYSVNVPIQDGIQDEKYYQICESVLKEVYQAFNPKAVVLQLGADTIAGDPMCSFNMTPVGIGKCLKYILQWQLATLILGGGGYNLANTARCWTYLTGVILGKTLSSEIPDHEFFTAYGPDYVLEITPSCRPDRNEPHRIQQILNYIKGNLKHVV

Histone deacetylase [4] = test: Inhibition of HDAC in human Cal27CisR cells assessed as potentiation of cisplatin-induced cytotoxicity by measuring cisplatin IC50 at 3 to 4 uM pretreated for 48 hrs followed by cisplatin addition and measured after 72 hrs by MTT assay (reference value: 3.57 uM); type: cell-based
[5] = target: T2, Histone deacetylase (Homo sapiens) (UniProt Q13547+O15379+Q9UBN7+Q92769+Q9UQL6+Q8WUI4+Q9BY41+Q96DB2+P56524+Q9UKV0+Q969S8); test: Inhibition of HDAC in human Cal27CisR cells assessed as potentiation of cisplatin-induced cytotoxicity by measuring cisplatin IC50 at 3 to 4 uM pretreated for 48 hrs followed by cisplatin addition and measured after 72 hrs by MTT assay relative to cisplatin alone; type: cell-based; settings: dose 3-4 µM, time 120.0 hrs
Histone deacetylase 2 = Histone deacetylase 2 (Homo sapiens, UniProt Q92769); test: Inhibition of recombinant human full length C-terminal GST-fusion tagged HDAC2 expressed in baculovirus infected insect cells using Boc-Lys(Ac)-AMC as substrate preincubated for 5 mins followed by substrate addition measured after 90 mins by fluorimetry; type: cell-based
Chain of Histone deacetylase 2 (Q92769 whole entry, the tested form may be a part): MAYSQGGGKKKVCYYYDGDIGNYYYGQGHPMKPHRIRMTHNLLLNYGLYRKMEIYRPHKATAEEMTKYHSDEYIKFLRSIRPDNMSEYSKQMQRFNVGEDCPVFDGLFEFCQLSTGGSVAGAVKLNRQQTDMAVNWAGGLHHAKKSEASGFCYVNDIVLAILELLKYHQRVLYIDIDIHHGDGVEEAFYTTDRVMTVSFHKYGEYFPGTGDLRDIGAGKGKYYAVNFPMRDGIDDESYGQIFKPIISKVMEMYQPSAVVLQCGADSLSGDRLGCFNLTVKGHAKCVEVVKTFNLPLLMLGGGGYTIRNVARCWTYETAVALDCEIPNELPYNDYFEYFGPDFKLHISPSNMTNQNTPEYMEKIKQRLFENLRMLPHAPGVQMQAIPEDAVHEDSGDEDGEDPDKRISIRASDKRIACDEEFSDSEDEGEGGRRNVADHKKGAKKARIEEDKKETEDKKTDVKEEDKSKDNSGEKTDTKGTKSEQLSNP

[6] = target: T2, Histone deacetylase (Homo sapiens); test: Inhibition of HDAC in human CAL-27 cells assessed as potentiation of cisplatin-induced cytotoxicity by measuring cisplatin IC50 at 3 to 4 uM pretreated for 48 hrs followed by cisplatin addition and measured after 72 hrs by MTT assay relative to cisplatin alone; type: cell-based; settings: dose 3-4 µM, time 120.0 hrs
Histone deacetylase [7] = test: Inhibition of HDAC in human CAL-27 cells assessed as potentiation of cisplatin-induced cytotoxicity by measuring cisplatin IC50 at 3 to 4 uM pretreated for 48 hrs followed by cisplatin addition and measured after 72 hrs by MTT assay (reference value: 3.57 uM); type: cell-based
[8] = target: T3, Protein deacetylase HDAC6 (Homo sapiens, UniProt Q9UBN7); test: Inhibition of recombinant human N-terminal GST-tagged HDAC6 (1 to 1215 residues) expressed in baculovirus infected insect cells using Boc-Lys(Ac)-AMC as substrate preincubated for 5 mins followed by substrate addition measured after 90 mins by fluorimetry
T3 sequence (Q9UBN7 whole entry): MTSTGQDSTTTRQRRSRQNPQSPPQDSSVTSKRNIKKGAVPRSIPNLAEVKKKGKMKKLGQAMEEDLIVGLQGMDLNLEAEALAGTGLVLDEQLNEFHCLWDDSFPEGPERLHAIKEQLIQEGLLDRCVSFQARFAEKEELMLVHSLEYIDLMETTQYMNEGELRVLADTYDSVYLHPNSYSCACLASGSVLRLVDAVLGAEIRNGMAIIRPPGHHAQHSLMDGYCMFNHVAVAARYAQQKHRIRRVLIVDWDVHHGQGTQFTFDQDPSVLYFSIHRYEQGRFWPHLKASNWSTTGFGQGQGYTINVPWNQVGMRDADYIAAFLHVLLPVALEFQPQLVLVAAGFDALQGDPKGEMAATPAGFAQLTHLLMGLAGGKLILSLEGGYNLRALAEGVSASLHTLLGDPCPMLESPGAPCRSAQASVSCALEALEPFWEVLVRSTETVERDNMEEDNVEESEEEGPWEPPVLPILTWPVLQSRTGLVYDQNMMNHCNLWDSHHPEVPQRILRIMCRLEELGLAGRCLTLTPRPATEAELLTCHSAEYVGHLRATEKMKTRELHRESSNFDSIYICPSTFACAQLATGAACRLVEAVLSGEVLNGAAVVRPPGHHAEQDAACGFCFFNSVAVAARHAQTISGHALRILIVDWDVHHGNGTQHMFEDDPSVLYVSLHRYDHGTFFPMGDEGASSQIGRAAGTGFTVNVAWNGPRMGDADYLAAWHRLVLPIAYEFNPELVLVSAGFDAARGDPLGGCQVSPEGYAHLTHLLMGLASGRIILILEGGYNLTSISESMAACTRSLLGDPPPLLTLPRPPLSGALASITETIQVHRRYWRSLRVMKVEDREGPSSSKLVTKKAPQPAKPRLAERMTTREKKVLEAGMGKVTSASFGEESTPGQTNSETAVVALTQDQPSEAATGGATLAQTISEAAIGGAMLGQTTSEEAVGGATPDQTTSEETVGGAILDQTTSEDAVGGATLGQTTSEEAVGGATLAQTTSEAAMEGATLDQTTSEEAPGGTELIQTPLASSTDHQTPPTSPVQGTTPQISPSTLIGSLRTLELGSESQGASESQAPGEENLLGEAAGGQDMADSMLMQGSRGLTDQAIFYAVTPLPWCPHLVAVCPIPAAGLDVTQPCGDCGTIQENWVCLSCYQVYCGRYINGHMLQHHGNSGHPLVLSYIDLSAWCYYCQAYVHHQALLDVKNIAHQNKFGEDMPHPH

[9] = target: T4, Protein deacetylase HDAC6 (Homo sapiens) (UniProt Q9UBN7); test: Inhibition of HDAC6 in human CAL-27 cells assessed as accumulation of acetylated alpha-tubulin at 1 uM for 24 hrs by Western blot analysis; type: cell-based
T4 sequence (whole entry): T3 sequence (Q9UBN7 whole entry)

Histone deacetylase [10] = test: Inhibition of HDAC in human CAL-27 cells assessed as potentiation of cisplatin-induced cytotoxicity by measuring cisplatin IC50 at 0.3 to 0.5 uM pretreated for 48 hrs followed by cisplatin addition and measured after 72 hrs by MTT assay (reference value: 3.57 uM); type: cell-based
[11] = target: T4, Protein deacetylase HDAC6 (Homo sapiens); test: Inhibition of HDAC6 in human CAL-27 cells assessed as accumulation of acetylated alpha-tubulin at 5 uM for 24 hrs by Western blot analysis; type: cell-based
[12] = target: T2, Histone deacetylase (Homo sapiens); test: Inhibition of HDAC in human Cal27CisR cells assessed as potentiation of cisplatin-induced cytotoxicity by measuring fold reduction in cisplatin IC50 at 0.3 to 0.5 uM pretreated for 48 hrs followed by cisplatin addition and measured after 72 hrs by MTT assay relative to cisplatin alone; type: cell-based; settings: dose 0.3-0.5 µM, time 120.0 hrs
[13] = target: T2, Histone deacetylase (Homo sapiens); test: Inhibition of HDAC in human CAL-27 cells assessed as potentiation of cisplatin-induced cytotoxicity by measuring fold reduction in cisplatin IC50 at 0.3 to 0.5 uM pretreated for 48 hrs followed by cisplatin addition and measured after 72 hrs by MTT assay relative to cisplatin alone; type: cell-based; settings: dose 0.3-0.5 µM, time 120.0 hrs
Histone deacetylase [14] = test: Inhibition of HDAC in human Cal27CisR cells assessed as potentiation of cisplatin-induced cytotoxicity by measuring cisplatin IC50 at 0.3 to 0.5 uM pretreated for 48 hrs followed by cisplatin addition and measured after 72 hrs by MTT assay (reference value: 3.57 uM); type: cell-based

SMILES	IC50 (Histone deacetylase [1])	IC50 (Histone deacetylase [2])	IC50 (CAL-27)	IC50 (A2780)	other results
O=C(CCCCCONC(=O)Cc1ccc2ccccc2c1)NO	3.71 µM	1.72 µM	3.57 µM	6.28 µM	
O=C(CCCCCONC(=O)c1cccc2ccccc12)NO	2.39 µM	1.89 µM	4.2 µM	7.6 µM	
CC(C)(C)OC(=O)Nc1ccc(-c2cc(C(=O)NCCCCCCC(=O)NO)no2)cc1					IC50 (HL-60): 0.594 µM; IC50 [3]: 0.109 µM
O=C(CCCCCONC(=O)c1ccc2[nH]ccc2c1)NO	0.85 µM	0.45 µM	1.3 µM	7.5 µM	
O=C(CCCCCONC(=O)c1cnc2ccccc2n1)NO	0.19 µM	0.49 µM	0.8 µM	7.7 µM	IC50 (Histone deacetylase 4): 60.8 µM; IC50 (Histone deacetylase 8): 7.95 µM; IC50 (Histone deacetylase [4]): 18.7 µM; Ratio IC50 [5]: 2.6; IC50 (Histone deacetylase 2): 0.044 µM; Ratio IC50 [6]: 1.23; IC50 (Histone deacetylase [7]): 2.9 µM; IC50 [8]: 0.018 µM
O=C(CCCCCONC(=O)c1cc2ccccc2o1)NO	1.71 µM	1.99 µM	0.78 µM	5.56 µM	
O=C(CCCCCONC(=O)c1cc2ccccc2s1)NO	1.58 µM	2.25 µM	0.5 µM	4.88 µM	
O=C(CCCCCONC(=O)c1[nH]nc2ccccc12)NO	0.71 µM	0.43 µM	1.8 µM	7.6 µM	
O=C(CCCCCONC(=O)c1cccc2[nH]ccc12)NO	0.74 µM	0.48 µM	1.2 µM	5.3 µM	
Nc1ccccc1NC(=O)c1ccc(CNC(=O)OCc2cccnc2)cc1					inhibition [9]: inactive
O=C(CCCCCONC(=O)c1ccnc2ccccc12)NO	7.68 µM	5.97 µM	11.9 µM	70 µM	
O=C(CCCCCONC(=O)c1nc2ccccc2[nH]1)NO	9.08 µM	4.17 µM	58.2 µM	> 100 µM	
O=C(CCCCCONC(=O)c1nc2ccccc2s1)NO	2.7 µM	3.16 µM	6.33 µM	21.8 µM	
O=C(CCCCCONC(=O)c1c[nH]c2ccccc12)NO	1.36 µM	0.81 µM	1.7 µM	7.8 µM	
O=C(CCCCCONC(=O)c1ccc2cc[nH]c2c1)NO	0.6 µM	0.4 µM	4.3 µM	11.3 µM	
O=C(CCCCCCNC(=O)c1cnc(N(c2ccccc2)c2ccccc2)nc1)NO [RICOLINOSTAT]					IC50 (HL-60): > 10 µM; IC50 [3]: 0.902 µM
O=C(CCCCCONC(=O)c1cccc2cc[nH]c12)NO	0.64 µM	0.46 µM	1 µM	1 µM	
O=C(CCCCCONC(=O)c1ccc2ccccc2c1)NO	0.35 µM	0.1 µM	0.18 µM	1 µM	IC50 (Histone deacetylase 4): 51.8 µM; IC50 (Histone deacetylase 8): 3.79 µM; IC50 (Histone deacetylase [10]): 2.32 µM; inhibition [11]: Active; IC50 (Histone deacetylase 2): 0.041 µM; Ratio IC50 [12]: 5.09; Ratio IC50 [13]: 1.54; IC50 (Histone deacetylase [14]): 9.53 µM; IC50 [8]: 0.011 µM
